# According to PubChem BioAssay AID256 (DTP/NCI, 2004):
# Values joined by “and” are separate entries in the source; they are usually repeats but may differ in a detail not shown here. Equal values may be shown once. Toxic doses and inconclusive results are not listed.
# System: CD2F1 mice, L1210 leukemia ip, survival T/C
# Assay: NCI In Vivo Anticancer Drug Screen. Data for tumor model L1210 Leukemia (intraperitoneal) in CD2F1 (CDF1) mice
# Details: higher = longer survival
# Procedure, shortened: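 Read-out first: treated-group measurement over vehicle-control measurement, expressed as a ratio. Animals bore a transplanted tumor line and were dosed with compound or vehicle.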
# [1] = endpoint: mean survival time, dose: 100.0 mg/kg/injection, schedule: Q04DX003 (ip), vehicle: saline with Tween-80
# [2] = endpoint: mean survival time, dose: 200.0 mg/kg/injection, schedule: Q04DX003 (ip), vehicle: saline with Tween-80
# [3] = endpoint: mean survival time, dose: 400.0 mg/kg/injection, schedule: Q04DX003 (ip), vehicle: saline with Tween-80
compound,measurement,setting,value
COC(=O)C1=NNC(C(=O)OC)=C(c2ccccc2)C(c2ccccc2)=N1,T/C,"endpoint: mean survival time, dose: 12.5 mg/kg/injection, schedule: Q01DX009 (ip), vehicle: Klucel (hydroxypropylcellulose) (HPC)",95 % of control
same,T/C,"endpoint: mean survival time, dose: 25.0 mg/kg/injection, schedule: Q01DX009 (ip), vehicle: Klucel (hydroxypropylcellulose) (HPC)",91 % of control
same,T/C,"endpoint: mean survival time, dose: 50.0 mg/kg/injection, schedule: Q01DX009 (ip), vehicle: Klucel (hydroxypropylcellulose) (HPC)",98 % of control
same,T/C,"endpoint: mean survival time, dose: 100.0 mg/kg/injection, schedule: Q01DX009 (ip), vehicle: Klucel (hydroxypropylcellulose) (HPC)",101 % of control
same,T/C,"endpoint: mean survival time, dose: 200.0 mg/kg/injection, schedule: Q01DX009 (ip), vehicle: Klucel (hydroxypropylcellulose) (HPC)",109 % of control
same,T/C,"endpoint: mean survival time, dose: 400.0 mg/kg/injection, schedule: Q01DX009 (ip), vehicle: Klucel (hydroxypropylcellulose) (HPC)",114 % of control
Cn1c(=O)c2c(nc(N3CCOCC3)n2CCCNCC(O)c2ccc(O)cc2)n(C)c1=O (configuration not stated),T/C,"endpoint: mean survival time, dose: 12.5 mg/kg/injection, schedule: Q01DX005 (ip), vehicle: water",102 % of control
same,T/C,"endpoint: mean survival time, dose: 25.0 mg/kg/injection, schedule: Q01DX005 (ip), vehicle: water",104 % of control
same,T/C,"endpoint: mean survival time, dose: 50.0 mg/kg/injection, schedule: Q01DX005 (ip), vehicle: water",100 % of control
same,T/C,"endpoint: mean survival time, dose: 100.0 mg/kg/injection, schedule: Q01DX005 (ip), vehicle: water",98 % of control
same,T/C,"endpoint: mean survival time, dose: 200.0 mg/kg/injection, schedule: Q01DX005 (ip), vehicle: water",104 % of control
CCOC(=O)c1c(C)c2c(n1C)CC/C(=C\N1CCOCC1)C2=O,T/C,"endpoint: mean survival time, dose: 100.0 mg/kg/injection, schedule: Q04DX002 (ip), vehicle: saline with Tween-80",93 % of control
same,T/C,"endpoint: mean survival time, dose: 200.0 mg/kg/injection, schedule: Q04DX002 (ip), vehicle: saline with Tween-80",93 % of control
same,T/C,"endpoint: mean survival time, dose: 400.0 mg/kg/injection, schedule: Q04DX002 (ip), vehicle: saline with Tween-80",96 % of control
CCOC(=O)CCC(NC(=O)c1ccc(N(CC)Cc2cnc3nc(N)nc(N)c3n2)cc1)C(=O)OCC (configuration not stated),T/C,"endpoint: mean survival time, dose: 1.56 mg/kg/injection, schedule: Q01DX009 (ip), vehicle: Klucel (hydroxypropylcellulose) (HPC)",152 % of control
O=C(O)/C=C\C(=O)Nc1ccccn1,T/C,"endpoint: mean survival time, dose: 5.0 mg/kg/injection, schedule: Q01DX009 (ip), vehicle: saline",94 % of control
same,T/C,"endpoint: mean survival time, dose: 5.0 mg/kg/injection, schedule: Q04DX003 (ip), vehicle: saline",105 % of control and 106 % of control
same,T/C,"endpoint: mean survival time, dose: 10.0 mg/kg/injection, schedule: Q01DX009 (ip), vehicle: saline",92 % of control
same,T/C,"endpoint: mean survival time, dose: 10.0 mg/kg/injection, schedule: Q04DX003 (ip), vehicle: saline",97 % of control and 105 % of control
same,T/C,"endpoint: mean survival time, dose: 20.0 mg/kg/injection, schedule: Q04DX003 (ip), vehicle: saline",97 % of control and 98 % of control
same,T/C,"endpoint: mean survival time, dose: 30.0 mg/kg/injection, schedule: Q01DX009 (ip), vehicle: saline",100 % of control
same,T/C,"endpoint: mean survival time, dose: 60.0 mg/kg/injection, schedule: Q01DX009 (ip), vehicle: saline",105 % of control
CCCCCCCCCCCCCCCC/C(=C\c1ccc2ccccc2c1)[N+](=O)[O-],T/C,"endpoint: mean survival time, dose: 75.0 mg/kg/injection, schedule: Q01DX001 (ip), vehicle: other",106 % of control
same,T/C,"endpoint: mean survival time, dose: 150.0 mg/kg/injection, schedule: Q01DX001 (ip), vehicle: other",96 % of control
same,T/C,"endpoint: mean survival time, dose: 300.0 mg/kg/injection, schedule: Q01DX001 (ip), vehicle: other",95 % of control
CN(C)CCNCc1ccc2c(c1)OCO2,T/C,"endpoint: mean survival time, dose: 25.0 mg/kg/injection, schedule: Q01DX001 (ip), vehicle: saline",102 % of control
same,T/C,"endpoint: mean survival time, dose: 50.0 mg/kg/injection, schedule: Q01DX001 (ip), vehicle: saline",102 % of control
same,T/C,"endpoint: mean survival time, dose: 100.0 mg/kg/injection, schedule: Q01DX001 (ip), vehicle: saline",102 % of control
CC(CO)CCC(C)CO (configuration not stated),T/C,[1],100 % of control
same,T/C,[2],95 % of control
same,T/C,[3],100 % of control
CCCCCCCCOC(=O)c1ccccc1C(=O)OCCCCCCCC,T/C,"endpoint: mean survival time, dose: 100.0 mg/kg/injection, schedule: Q01DX009 (ip), vehicle: saline with Tween-80",110 % of control
same,T/C,[1],98 % of control
same,T/C,"endpoint: mean survival time, dose: 200.0 mg/kg/injection, schedule: Q01DX009 (ip), vehicle: saline with Tween-80",102 % of control
same,T/C,[2],93 % of control
same,T/C,"endpoint: mean survival time, dose: 400.0 mg/kg/injection, schedule: Q01DX009 (ip), vehicle: saline with Tween-80",98 % of control
same,T/C,[3],90 % of control
CSc1nc(NC2OCC(O)C(O)C2O)c(Br)c(=O)[nH]1 (configuration not stated),T/C,"endpoint: median survival time, dose: 12.5 mg/kg/injection, schedule: Q01DX005 (ip), vehicle: saline with Tween-80",101 % of control
same,T/C,"endpoint: median survival time, dose: 25.0 mg/kg/injection, schedule: Q01DX005 (ip), vehicle: saline with Tween-80",101 % of control
same,T/C,"endpoint: median survival time, dose: 50.0 mg/kg/injection, schedule: Q01DX005 (ip), vehicle: saline with Tween-80",101 % of control
same,T/C,"endpoint: median survival time, dose: 100.0 mg/kg/injection, schedule: Q01DX005 (ip), vehicle: saline with Tween-80",101 % of control
same,T/C,"endpoint: median survival time, dose: 200.0 mg/kg/injection, schedule: Q01DX005 (ip), vehicle: saline with Tween-80",101 % of control
